Source: US11472791B2 (Incyte Corporation, priority 2019, dated 2022)

Legend:
[1] = tested on: Rb phosphorylated on serine 780 in CCNE1 amplified COV318 cells; experiment: CDK2 pRb (S780) HTRF cellular assay; assay type: cell-based; settings: Homo sapiens, read-out: IC50 in p-RB S780 HTRF cellular assay
[2] = tested on: COV318 cells; experiment: Cell cycle analysis by FACS after p16 knockdown; assay type: cell-based, human; settings: 100 nM, 16 hours
Experimental: To confirm the role of p16 in CDK2-sensitivity of CCNE1-amplified cells, COV318 cells were treated with control or p16-specific siRNA.
(§1) Bulk DNA was stained with DAPI. Compound-treated and DMSO treated control cells were acquired with CytoFlex (Beckman Coulter) and were analyzed using the FlowJo software. For cell cycle analysis of cells with siRNA knockdown, 72 hours after siRNA transfection, cells exposed to 10 μM EdU for 3 hours before detection of Click-iT Alexa Fluor® 647 azide kit.

[3] = target: human JAK1 (Homo sapiens, UniProt P23458); experiment: JAK inhibitory activity assay (JAK1); assay type: biochemical; settings: 1 mM ATP
Experimental: (§2) Compounds herein were tested for inhibitory activity of JAK targets according to the following in vitro assay described in Park et al., Analytical Biochemistry 1999, 269, 94-104. The catalytic domains of human JAK1 (a.a. 837-1142), Jak2 (a.a. 828-1132) and Jak3 (a.a. 781-1124) with an N-terminal His tag were expressed using baculovirus in insect cells and purified. The catalytic activity of JAK1 and JAK2 was assayed by measuring the phosphorylation of a biotinylated peptide. The phosphorylated peptide was detected by homogenous time resolved fluorescence (HTRF). Each enzyme reaction was carried out with or without test compound (11-point dilution), JAK enzyme, 500 nM peptide, adenosine triphosphate (ATP; 1 mM), and 2.0% dimethyl sulfoxide (DMSO) in assay buffer (50 mM Tris (pH 7.8) buffer, 100 mM NaCl, 5 mM DTT, and 0.1 mg/mL (0.01%) BSA). The peptide substrate (Biotin-[…]) was custom synthesized by Biosource International. Reactions were carried out at room temperature for 1 hour and then stopped with 10 μL 45 mM EDTA, 200 nM SA-APC, 4 nM Eu-Py20 in assay buffer (Perkin Elmer, Boston, Mass.). After incubation for 30 minutes at room temperature, the HTRF signal was measured on a PheraStar plate reader.

[4] = target: JAK2 (Homo sapiens (Human), UniProt O60674); experiment: JAK inhibitory activity assay (JAK2); assay type: biochemical; settings: 1 mM ATP
Experimental: as §2

[5] = target: CDK2/Cyclin E1 (Homo sapiens (Human), UniProt P24941); experiment: CDK2/Cyclin E1 HTRF enzyme activity assay; assay type: biochemical; settings: 1 mM ATP
Experimental: Assays are conducted in white 384-well polystyrene plates in a final reaction volume of 8 μL. […] HTRF signals are read after 1 hour at room temperature on a PHERAstar FS plate reader (BMG Labtech). Data is analyzed with IDBS XLFit and GraphPad Prism 5.0 software using a three or four parameter dose response curve to determine IC50 for each compound.

[6] = tested on: Rb phosphorylation at S780 in CCNE1-non-amplified cell lines (COV504 and OV56); experiment: Western blot of Rb phosphorylation at S780, CCNE1-non-amplified cell lines; assay type: cell-based, human; settings: COV504 and OV56, various doses, 1 or 15 hours
Experimental: (§3) The effect of CDK4/6-inhibition on Rb phosphorylation at S780 in CCNE1-amplified versus CCNE1-non-amplified cell lines was evaluated. […] One or 15 hours after treatment, the cells were harvested and total protein was extracted and analyzed by western blot (FIG. 8).
(§4) Whole cell extracts were prepared using RIPA buffer (Thermo Scientific, 89900) with a Halt Protease and Phosphatase Inhibitor Cocktail (Thermo Scientific, 78440). Protein concentration was quantified with a BCA Protein Assay Kit (Thermo Scientific, 23225) and 40 μg of protein lysates were loaded for SDS-PAGE using precast gradient gels (Bio-Rad, Hercules, No. 456-1094). Samples were diluted in 5× Laemmli buffer (300 mM Tris-HCl pH 6.8, 10% SDS (w/v), 5% 2-mercaptoethanol, 25% glycerol (v/v), 0.1% bromophenol blue w/v) and boiled for 5 minutes. 35 μg of proteins were separated by 8-15% SDS-PAGE and transferred onto polyvinylidene fluoride (PVDF) membranes. Unspecific binding sites on the PVDF membranes were blocked with 5% non-fat milk in TEST (20 mM Tris-HCl, pH 7.6, 137 mM NaCl, 1% Tween-20). […] Images were captured by Luminescence/Fluorescence Imaging System Odyssey CLx Imager (LI-COR).

[7] = tested on: CCNE1-non-amplified cell lines (COV504, OV56, and Igrov1); experiment: Cell cycle analysis by FACS, CCNE1-non-amplified cell lines; assay type: cell-based, human; settings: for inhibition of proliferation: CCNE1-non-amplified COV504 cells, 16 hours, increasing concentrations, vs DMSO; for percentage of cells at the S phase: COV504, OV56, Igrov1, 16 hours after treatment, compared to DMSO
Experimental: (§5) The effect of CDK4/6-inhibition in CCNE1-amplified versus CCNE1-non-amplified cell lines was evaluated.
(§6) A similar experiment was performed in a larger set of CCNE1-amplified cell lines (COV318 and OVCAR3) and CCNE1-non-amplified cell lines (COV504, OV56, and Igrov1) (FIG. 6).
as §1

[8] = tested on: Rb phosphorylation at S780 in CCNE1-amplified cell lines (OVCAR3 and COV318); experiment: Western blot of Rb phosphorylation at S780, CCNE1-amplified cell lines; assay type: cell-based, human; settings: OVCAR3 and COV318, various doses, 1 or 15 hours; listed as Palbociclib
Experimental: as §3, §4

[9] = tested on: CCNE1-amplified cell lines (COV318 and OVCAR3); experiment: Cell cycle analysis by FACS, CCNE1-amplified cell lines; assay type: cell-based, human; settings: for inhibition of proliferation: CCNE1-amplified OVCAR3 cells, 16 hours, increasing concentrations, vs DMSO
Experimental: as §5, §6, §1

Sequence of JAK2 (O60674 828-1132): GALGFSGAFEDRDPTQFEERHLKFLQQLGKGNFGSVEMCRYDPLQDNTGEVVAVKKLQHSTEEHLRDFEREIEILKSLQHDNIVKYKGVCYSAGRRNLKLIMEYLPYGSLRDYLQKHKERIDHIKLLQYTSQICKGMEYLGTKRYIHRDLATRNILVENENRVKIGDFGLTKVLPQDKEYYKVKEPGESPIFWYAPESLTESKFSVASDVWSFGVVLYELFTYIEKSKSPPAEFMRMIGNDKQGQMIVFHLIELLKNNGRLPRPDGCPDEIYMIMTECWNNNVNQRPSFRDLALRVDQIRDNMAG

Compound	IC50 [3] [µM]	IC50 [4] [µM]	IC50 [5] [µM]	other results
C[C@@]1(O)CCC[C@H]1n1c(=O)ccc2cnc(NC3CCN(S(C)(=O)=O)CC3)nc21 [Compound A, 8-((1R,2R)-2-hydroxy-2-methylcyclopentyl)-2-((1-(methylsulfonyl)piperidin-4-yl)amino)pyrido[2,3-d]pyrimidin-7(8H)-one]				IC50 [1]: 0.037 µM; percentage of S phase cells ([2]; control siRNA-treated COV318 cells): significantly decreased; percentage of S phase cells ([2]; p16 knocked down COV318 cells, compared to DMSO): not significantly decreased
Cn1cc(S(=O)(=O)N2CCC(Nc3ncc(C(F)(F)F)c(-c4cnn(CC(F)(F)F)c4)n3)CC2)cn1 [Example 1, N-(1-((1-Methyl-1H-pyrazol-4-yl)sulfonyl)piperidin-4-yl)-4-(1-(2,2,2-trifluoroethyl)-1H-pyrazol-4-yl)-5-(trifluoromethyl)pyrimidin-2-amine]	≥ 10	≥ 10	< 0.05	
CNCc1ccc(-n2cc(-c3nc(NC4CCN(S(C)(=O)=O)CC4)ncc3C(F)(F)F)cn2)c(C)c1 [Example 41, 4-(1-(2-Methyl-4-((methylamino)methyl)phenyl)-1H-pyrazol-4-yl)-N-(1-(methylsulfonyl)piperidin-4-yl)-5-(trifluoromethyl)pyrimidin-2-amine]	≥ 10	≥ 10	< 0.05	
CC(C)(O)Cn1cc(-c2nc(NC3CCN(S(=O)(=O)C4CC4)CC3)ncc2C#N)cn1 [Example 54, 2-((1-(Cyclopropylsulfonyl)piperidin-4-yl)amino)-4-(1-(2-hydroxy-2-methylpropyl)-1H-pyrazol-4-yl)pyrimidine-5-carbonitrile]	≥ 10	≥ 10	< 0.05	
CC(C)(C(N)=O)n1cc(-c2nc(NC3CCN(S(=O)(=O)c4ccccn4)CC3)ncc2C(F)(F)F)cn1 [Example 96, 2-Methyl-2-(4-(2-((1-(pyridin-2-ylsulfonyl)piperidin-4-yl)amino)-5-(trifluoromethyl)pyrimidin-4-yl)-1H-pyrazol-1-yl)propanamide]	≥ 10	≥ 10	< 0.05	
CN1CCN(Cc2ccc(-n3cc(-c4nc(NC5CCN(S(C)(=O)=O)CC5)ncc4C#N)cn3)c(Cl)c2)CC1 [Example 99, 4-(1-(2-Chloro-4-((4-methylpiperazin-1-yl)methyl)phenyl)-1H-pyrazol-4-yl)-2-((1-(methylsulfonyl)piperidin-4-yl)amino)pyrimidine-5-carbonitrile]	≥ 10	≥ 10	< 0.05	
CC(=O)c1c(C)c2cnc(Nc3ccc(N4CCNCC4)cn3)nc2n(C2CCCC2)c1=O [palbociclib]				Rb phosphorylation at S780 [6]: blocked Rb phosphorylation at S780; Rb phosphorylation at S780 ([6]; listed as Palbociclib): blocks RB phosphorylation at S780; inhibition of proliferation [7]: dose-dependent inhibition of the proliferation; inhibition of proliferation ([7]; listed as Palbociclib): dose-dependent inhibition of proliferation; percentage of cells at the S phase [7]: decreased in CCNE1-non-amplified cell lines in a dose-dependent fashion; percentage of cells at the S phase ([7]; listed as Palbociclib): selectively inhibits proliferation; IC50 [1]: > 3 µM; Rb phosphorylation at S780 [8]: not in amplified ovarian cells; inhibition of proliferation [9]: not in CCNE1-amplified cells; inhibition of proliferation ([9]; listed as Palbociclib): not in amplified cell lines; percentage of cells at the S phase ([9]; COV318 and OVCAR3, 16 hours after treatment, compared to DMSO): not significantly different

Continued, in another order:

IC50 [3] [µM]	IC50 [4] [µM]	IC50 [5] [µM]	Compound	other results
≥ 10	≥ 10	< 0.05	CS(=O)(=O)N1CCC(Nc2ncc(C(F)(F)F)c(-c3cnn(CC(F)(F)F)c3)n2)CC1 [Example 10, N-(1-(Methylsulfonyl)piperidin-4-yl)-4-(1-(2,2,2-trifluoroethyl)-1H-pyrazol-4-yl)-5-(trifluoromethyl)pyrimidin-2-amine]	
≥ 10	≥ 10	< 0.05	CN1CCC(n2cc(-c3nc(NC4CCN(S(C)(=O)=O)CC4)ncc3C(F)(F)F)cn2)CC1 [Example 11, 4-(1-(1-Methylpiperidin-4-yl)-1H-pyrazol-4-yl)-N-(1-(methylsulfonyl)piperidin-4-yl)-5-(trifluoromethyl)pyrimidin-2-amine]	
≥ 5	≥ 5	< 0.05	CO[C@H]1CC[C@H](n2cc(-c3nc(NC4CCN(S(=O)(=O)c5cn(C)cn5)CC4)ncc3C(F)(F)F)cn2)CC1 [Example 42, 4-(1-((1r,4r)-4-Methoxycyclohexyl)-1H-pyrazol-4-yl)-N-(1-((1-methyl-1H-imidazol-4-yl)sulfonyl)piperidin-4-yl)-5-(trifluoromethyl)pyrimidin-2-amine]	
≥ 10	≥ 10	< 0.05	C[C@]1(N)C[C@@H](n2cc(-c3nc(NC4CCN(S(=O)(=O)C5CC5)CC4)ncc3C(F)(F)F)cn2)C1 [Example 44, 4-(1-((1s,3s)-3-Amino-3-methylcyclobutyl)-1H-pyrazol-4-yl)-N-(1-(cyclopropylsulfonyl)piperidin-4-yl)-5-(trifluoromethyl)pyrimidin-2-amine]	
≥ 10	≥ 10	< 0.05	CC(C)(O)Cn1cc(-c2nc(NC3CCN(S(=O)(=O)C4CC4)CC3)ncc2C(F)(F)F)cn1 [Example 51, 1-(4-(2-((1-(Cyclopropylsulfonyl)piperidin-4-yl)amino)-5-(trifluoromethyl)pyrimidin-4-yl)-1H-pyrazol-1-yl)-2-methylpropan-2-ol]	
